Common to all, as to type: in vivo, human
Assay [1] deals with panel of 4 trained sensory evaluators. Briefly: Taste and spit assay, descriptive taste impression versus base samples, panel of 4 trained sensory evaluators (Examples 3 to 31). The following applies: acesulfame K 350 wppm. As for the experimental part: (§1) All tests were conducted under controlled and standardized conditions.
(§2) The samples were prepared by a trained laboratory assistant.
35 ml of the samples were served at room temperature in clear plastic cups.
The following samples comprising a composition of the invention were tested for their ability to improve the taste of artificial sweeteners.
All samples were tested in duplicate and evaluated at least 3 different concentrations in comparison to 3 base samples (samples 1 to 3).
The panelists were asked to evaluate and to describe the taste impression of the samples 4 to 13 containing a sweetener composition comprising acesulfame potassium, sucralose and a composition of the invention, e.g. bitter aftertaste, creaminess, fullness and character of the sweeteners in each case in comparison to the base samples 1 to 3.
The results of the taste and spit assay are based in each case on a qualitative evaluation of the differences between the samples.

The test system of assay [2] is panelists. Briefly: Dilution of naringin in water until its taste is no longer detectable (Example 34). The following applies: diluted in water. An excerpt: The method comprises the step of selecting at least one flavoring. The flavorings may be as discussed herein. The method may further comprise the step of diluting the at least one flavoring with a diluent to form a diluted composition to determine a flavor threshold level at which the flavor of the flavoring is not detectable, e.g., by taste, in the diluted composition. In order to make this determination, the diluted composition may be sampled, e.g., tasted, at various stages of dilution. As the diluted composition becomes more dilute, the flavor of the flavorant will become less recognizable or identifiable. The flavor threshold level is the point at which the flavor of the flavoring is no longer recognized or identified by a taster or taste panel. The method further comprises the step of adding at least one flavoring to a sweetener and/or sweetness enhancer to form a sweetener composition. The sweeteners and/or sweetness enhancers are discussed above. The sweeteners and/or sweetness enhancers may have an unpleasant off-taste associated therewith, as discussed above. Preferably, the flavoring is added to the sweetener and/or the sweetness enhancer at a level at or below the flavor threshold level.
Naringin was diluted in water until the diluted solution reached a concentration of 1.6 wppm. At this concentration, its taste was no longer detectable in water.

The test system of assay [3] is panelists. The assay can be described thus: Naringin at non-detectable concentration tested in acesulfame K and acesulfame K/sucralose solutions (Example 34). The following applies: naringin 1.6 wppm (not detectable) in acesulfame K (350 ppm) solution and in acesulfame K (350 wppm)/sucralose (80 wppm) solution; all panelists. An excerpt: The method further comprises the step of determining whether the at least one flavoring, when present in the sweetener composition at or below the flavor threshold level, is capable of modifying, masking, reducing and/or suppressing the unpleasant off-taste of the sweetener/sweetness enhancer in the sweetener composition. This determination may be made by employing suitable methods known in the art. For example the determination may be made by utilizing a taster or a taste panel. The taster may sample the prepared sweetener composition and make a determination as to whether the off-taste has been modified, masked, reduced, and/or suppressed. If so, then the particular flavoring is capable of modifying, masking, reducing, and/or suppressing unpleasant off-tastes. Preferably, the flavor of the flavoring is not detectable, e.g., by taste, in the sweetener composition, the sweetness enhancer composition, and/or the consumable product composition.
Then, naringin was tested at this concentration in an aceslfame K (350 ppm) solution and in an acesulfame K (350 wppm)/sucralose (80 wppm) solution.

Assay [4] concerns panel of 11 trained sensory evaluators. The assay can be described thus: Taste and spit assay with regard to sweetness in the aftertaste, panel of 11 trained sensory evaluators (Example 2). The following applies: aqueous samples; 35 ml at 6.0-8.0 °C; aftertaste after 2 minutes; 11 panelists; qualitative, FIG. 2. The procedure:
Air was constantly exchanged.
as §2
(§3) The panel used the sweetness scale anchored by three concentrations of sucrose:
(§4) Sweetness was assessed with the 1st sip (max. 30 ml, min of 15 ml) and scored in the aftertaste (after 2 minutes).
(§5) All samples were tested in duplicate.

Assay [5] concerns panel of 4 trained sensory evaluators. The assay can be described thus: Taste and spit assay with regard to sweetness in the aftertaste, panel of 4 trained sensory evaluators (Example 33). The following applies: 35 ml at 6.0-8.0 °C; aftertaste after 2 minutes; all 4 panelists; qualitative. As for the experimental part:
as §1, §2, §3, §4, §5
The samples with the same composition as in Example 1 have been assessed: […]

[6] abbreviates: composition with amino acids: benzaldehyde 0.02 wppm in sample 13 (sucralose 75 wppm), quinine 0.01 wppm in sample 32 (sucralose 80 wppm).
Where [7] appears, read: composition without amino acids: benzaldehyde 0.02 wppm in sample 12, quinine 0.01 wppm in sample 31, sucralose 80 wppm.

Consider `O=Cc1ccccc1` [Benzaldehyde, benzaldehyde], for which the “further effect added to the composition by the substance used below its threshold” value in assay [1] (setting [6]) and in assay [1] (setting [7]) was “did not add any further effect to the composition of the invention” throughout.

For the molecule `C[C@@H]1O[C@@H](O[C@H]2[C@H](Oc3cc(O)c4c(c3)O[C@H](c3ccc(O)cc3)CC4=O)O[C@H](CO)[C@@H](O)[C@@H]2O)[C@H](O)[C@H](O)[C@H]1O` [Naringin], in the assay with panelists [2], the “concentration at which its taste was no longer detectable in water” value is 1.6 wppm. Also, the “effect on the bitter aftertaste of acesulfame K” value in the assay with panelists [3] is given as “improve the bitter aftertaste of acesulfame K”.

`C=C[C@H]1C[N@@]2CC[C@H]1C[C@H]2[C@H](O)c1ccnc2ccc(OC)cc12` [Quinine, quinine]: the “further effect added to the composition by the substance used below its threshold” value in assay [1] (setting [6]) and in assay [1] (setting [7]) was “does not add anything to the effects of the composition” in each case.

delta-undecalactone: the “taste contribution of the lactone to the total composition” value in assay [1] (delta-undecalactone 0.0388 wppm in sample 14 with naringin, 4-methoxy salicylaldehyde, syringaldehyde, whiskey lactone, sucralose 80 wppm, all panelists) was “not being too volatile and as adding a creamy taste, and as improving the total composition”.

saccharose [Sample 1]: the “sweetness in the aftertaste” value in assay [4] was “less sweet in the aftertaste than acesulfame potassium and sucralose”; in assay [5], “less sweet in the aftertaste compared to acesulfame potassium and sucralose”.

Values taken from patent publication US20130136839A1, “Taste-Masking Compositions, Sweetener Compositions and Consumable Product Compositions Containing the Same” (Nutrinova Nutrition Specialties & Food Ingredients GmbH, priority 2011, published 2013).
